These results are taken from patent US10683269B2 (MISSION THERAPEUTICS LIMITED, priority 2016, dated 2020).

T1 sequence (Q93009 whole entry): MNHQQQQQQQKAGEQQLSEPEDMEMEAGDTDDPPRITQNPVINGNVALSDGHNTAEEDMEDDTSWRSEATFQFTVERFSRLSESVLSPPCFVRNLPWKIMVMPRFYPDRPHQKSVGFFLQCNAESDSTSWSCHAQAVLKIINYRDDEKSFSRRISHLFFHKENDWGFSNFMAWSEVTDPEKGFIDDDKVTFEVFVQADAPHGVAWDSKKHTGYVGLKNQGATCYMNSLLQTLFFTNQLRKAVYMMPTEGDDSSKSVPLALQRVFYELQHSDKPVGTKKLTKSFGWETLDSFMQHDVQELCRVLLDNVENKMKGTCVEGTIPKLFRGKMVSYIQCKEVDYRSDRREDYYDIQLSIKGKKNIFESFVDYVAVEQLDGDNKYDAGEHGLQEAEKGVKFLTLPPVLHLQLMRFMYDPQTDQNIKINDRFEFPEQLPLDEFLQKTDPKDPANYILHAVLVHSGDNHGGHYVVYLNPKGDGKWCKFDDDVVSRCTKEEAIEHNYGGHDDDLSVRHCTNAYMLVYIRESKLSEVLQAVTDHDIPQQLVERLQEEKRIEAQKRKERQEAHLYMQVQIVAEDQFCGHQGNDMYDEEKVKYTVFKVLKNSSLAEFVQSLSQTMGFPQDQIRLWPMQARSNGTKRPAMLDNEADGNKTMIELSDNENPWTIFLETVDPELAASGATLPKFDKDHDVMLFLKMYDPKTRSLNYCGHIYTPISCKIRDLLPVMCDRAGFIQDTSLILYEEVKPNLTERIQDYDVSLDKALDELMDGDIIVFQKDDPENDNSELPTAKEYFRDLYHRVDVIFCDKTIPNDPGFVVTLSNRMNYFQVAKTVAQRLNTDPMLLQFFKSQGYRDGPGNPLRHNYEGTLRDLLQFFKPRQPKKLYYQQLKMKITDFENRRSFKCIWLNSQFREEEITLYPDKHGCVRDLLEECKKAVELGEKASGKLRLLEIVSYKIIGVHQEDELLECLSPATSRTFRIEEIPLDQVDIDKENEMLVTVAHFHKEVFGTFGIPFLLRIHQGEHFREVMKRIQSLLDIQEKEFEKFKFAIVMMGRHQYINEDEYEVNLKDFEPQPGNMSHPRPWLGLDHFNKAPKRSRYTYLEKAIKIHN

The first experiment has as its target T1, USP7 (Homo sapiens, UniProt Q93009).
T1 construct: The USP7 construct was PCR amplified and cloned into a pFLAG-CMV-6a vector (Sigma-Aldrich) with an N-terminal FLAG tag; made in house; host or cells: HEK293T
Put plainly: USP7 biochemical IC50 assay (fluorescence polarisation, TAMRA labelled peptide linked to ubiquitin via an iso-peptide bond). To be noted: 30 min pre-incubation of enzyme and compound, read after 2 hr incubation at room temperature, read-out: IC50 range. In outline:
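Fluorescence polarisation at 540 nm excitation/590 nm emission, read immediately and after 2 hr at room temperature, following addition of 50 nM TAMRA-labelled iso-peptide ubiquitin substrate.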
Turning to `N#CN1Cc2nc(Cl)nc(-c3ccc(F)cc3)c2C1` [Example 149, 2-chloro-4-(4-fluorophenyl)-5,7-dihydro-6H-pyrrolo[3,4-d]pyrimidine-6-carbonitrile], the half-inhibitory concentration (IC50) lay in the range of 10 to 30 µM.
As to `N#Cc1ccc(-c2cccc3c2CN(C#N)C3)c(C(N)=O)c1` [Example 1, 5-cyano-2-(2-cyanoisoindolin-4-yl)benzamide], the IC50 lay in the range of 1 to 10 µM.
On the same count and under the same terms, for `N#CN1Cc2cccc(-c3ccccc3C(N)=O)c2C1` [Example 157, 2-(2-cyanoisoindolin-4-yl)benzamide] the value was 1 to 10 µM; for `N#CN1Cc2cccc(NC(=O)c3ccc(-c4ccncc4)cc3)c2C1` [Example 82, N-(2-cyanoisoindolin-4-yl)-4-(pyridin-4-yl)benzamide], 1 to 10 µM; for `N#Cc1ccc(-c2cccc3c2CN(C#N)C3)c(Cl)c1` [Example 65, 4-(2-chloro-4-cyanophenyl)isoindoline-2-carbonitrile], 1 to 10 µM.
The same measure, in the same setting: the value for `CC(=O)N1CCC(CCc2cc3c(c(-c4ccc(C#N)cc4)c2)CN(C#N)C3)CC1` [Example 257, 6-(2-(1-acetylpiperidin-4-yl)ethyl)-4-(4-cyanophenyl)isoindoline-2-carbonitrile] was 1 to 10 µM; that for `N#Cc1ccc(-c2cc(CNc3ccn[nH]3)cc3c2CN(C#N)C3)cc1` [Example 230, 6-(((1H-pyrazol-5-yl)amino)methyl)-4-(4-cyanophenyl)isoindoline-2-carbonitrile] was < 1 µM.
For `CS(=O)(=O)Nc1cc2c(c(-c3ccccc3C#N)c1)CN(C#N)C2` [Example 242, N-(2-cyano-7-(2-cyanophenyl)isoindolin-5-yl)methanesulfonamide], the IC50 was in the range of 1 to 10 µM.
Same read-out and setting: for `CN1CCC[C@@H](C(=O)Nc2cc3c(c(-c4cccc(F)c4)c2)CN(C#N)C3)C1` [Example 25, (R)-N-(2-cyano-7-(3-fluorophenyl)isoindolin-5-yl)-1-methylpiperidine-3-carboxamide] the value was < 1 µM; for `CS(=O)(=O)CCc1cc2c(c(-c3ccccc3)c1)CN(C#N)C2` [Example 252, 6-(2-(methylsulfonyl)ethyl)-4-phenylisoindoline-2-carbonitrile], 1 to 10 µM.
On the same count and under the same terms, for `CN1CCCC(CN(C)c2nc3c(c(N4CCc5cccnc5C4)n2)CN(C#N)C3)C1` (stereo not drawn) [Example 295, 4-(5,8-dihydro-1,7-naphthyridin-7(6H)-yl)-2-(methyl((1-methylpiperidin-3-yl)methyl)amino)-5,7-dihydro-6H-pyrrolo[3,4-d]pyrimidine-6-carbonitrile] the value was 1 to 10 µM; for `N#CN1Cc2nc(NCC(O)CO)cc(-c3ccc(F)cc3)c2C1` (stereo not drawn) [Example 250, 2-((2,3-dihydroxypropyl)amino)-4-(4-fluorophenyl)-5,7-dihydro-6H-pyrrolo[3,4-b]pyridine-6-carbonitrile], 1 to 10 µM.
Still for that read-out and setting: the value for `N#CN1Cc2nc(Nc3ccccc3)nc(-c3ccccc3)c2C1` [Example 116, 4-phenyl-2-(phenylamino)-5,7-dihydro-6H-pyrrolo[3,4-d]pyrimidine-6-carbonitrile] was 1 to 10 µM.
For `COCc1ccc(C(=O)Nc2cccc3c2CN(C#N)C3)cc1` [Example 88, N-(2-cyanoisoindolin-4-yl)-4-(methoxymethyl)benzamide], the half-inhibitory concentration (IC50) lay in the range of 10 to 30 µM.
On to `COc1ccccc1-c1nc2c(c(N3CCCC3)n1)CN(C#N)C2` [Example 135, 2-(2-methoxyphenyl)-4-(pyrrolidin-1-yl)-5,7-dihydro-6H-pyrrolo[3,4-d]pyrimidine-6-carbonitrile], for which the IC50 lay in the range of 1 to 10 µM.
On the same count and under the same terms, for `N#Cc1ccc(-c2cccc3c2CN(C#N)C3)c(C#N)c1` [Example 72, 4-(2-cyanoisoindolin-4-yl)isophthalonitrile] the value was < 1 µM; for `N#CN1Cc2nc(-c3cccnc3)nc(N3CCCC3)c2C1` [Example 137, 2-(pyridin-3-yl)-4-(pyrrolidin-1-yl)-5,7-dihydro-6H-pyrrolo[3,4-d]pyrimidine-6-carbonitrile], 1 to 10 µM.
On the same count and under the same terms, for `Cc1cc(C#N)cc(C)c1-c1cccc2c1CN(C#N)C2` [Example 67, 4-(4-cyano-2,6-dimethylphenyl)isoindoline-2-carbonitrile] the value was 1 to 10 µM; for `N#CN1Cc2cccc(NC(=O)c3ccc(S(=O)(=O)Nc4ccccc4)cc3)c2C1` [Example 92, N-(2-cyanoisoindolin-4-yl)-4-(N-phenylsulfamoyl)benzamide], 1 to 10 µM.
The same measure, in the same setting: for `CN1CCC(C(=O)Nc2ccc3c(c2)CN(C#N)C3)C1` (stereo not drawn) [Example 94, N-(2-cyanoisoindolin-5-yl)-1-methylpyrrolidine-3-carboxamide] the value was 1 to 10 µM; for `COC(=O)Nc1cccc(C(=O)Nc2cccc3c2CN(C#N)C3)c1` [Example 89, methyl (3-((2-cyanoisoindolin-4-yl)carbamoyl)phenyl)carbamate], 1 to 10 µM.
In the case of `CNC(=O)c1cc2c(c(-c3cc(OC)cnc3C#N)c1)CN(C#N)C2` [Example 293, 2-cyano-7-(2-cyano-5-methoxypyridin-3-yl)-N-methylisoindoline-5-carboxamide], the IC50 was in the range of 1 to 10 µM.
`COC(CO)CNc1cc2c(c(-c3ccc(C#N)cc3)c1)CN(C#N)C2` (stereo not drawn) [Example 284, 4-(4-Cyanophenyl)-6-((3-hydroxy-2-methoxypropyl)amino)isoindoline-2-carbonitrile]: the IC50 lay in the range of 1 to 10 µM.
Still for that read-out and setting: for `N#Cc1ccccc1-c1cc(C(N)=O)cc2c1CN(C#N)C2` [Example 241, 2-cyano-7-(2-cyanophenyl)isoindoline-5-carboxamide] the value was 1 to 10 µM; for `CC(O)CNc1cc2c(c(-c3ccc(C#N)cc3)c1)CN(C#N)C2` (stereo not drawn) [Example 286, 4-(4-Cyanophenyl)-6-((2-hydroxypropyl)amino)isoindoline-2-carbonitrile], 1 to 10 µM; for `CN1CC(C(=O)Nc2cc3c(c(-c4ccccc4)c2)CN(C#N)C3)CCC1=O` (stereo not drawn) [Example 44, N-(2-cyano-7-phenylisoindolin-5-yl)-1-methyl-6-oxopiperidine-3-carboxamide], < 1 µM.
The same measure, in the same setting: for `CCNS(=O)(=O)c1ccccc1-c1cccc2c1CN(C#N)C2` [Example 175, 2-(2-cyanoisoindolin-4-yl)-N-ethylbenzenesulfonamide] the value was 1 to 10 µM.
Still for that read-out and setting: the value for `N#CN1Cc2nc(-c3cn[nH]c3)nc(N3CCc4ccccc4C3)c2C1` [Example 145, 4-(3,4-dihydroisoquinolin-2(1H)-yl)-2-(1H-pyrazol-4-yl)-5,7-dihydro-6H-pyrrolo[3,4-d]pyrimidine-6-carbonitrile] was 1 to 10 µM; that for `N#Cc1ccc(-c2cc(N3CCS(=O)(=O)CC3)cc3c2CN(C#N)C3)cc1` [Example 278, 4-(4-cyanophenyl)-6-(1,1-dioxidothiomorpholino)isoindoline-2-carbonitrile] was 1 to 10 µM; that for `N#CN1Cc2ccnc(-c3ccccc3)c2C1` [Example 19, 4-phenyl-1,3-dihydro-2H-pyrrolo[3,4-c]pyridine-2-carbonitrile] was 1 to 10 µM.
Turning to `CCN1CCOC(C(=O)Nc2cc3c(c(-c4ccccc4)c2)CN(C#N)C3)C1` (stereo not drawn) [Example 54, N-(2-cyano-7-phenylisoindolin-5-yl)-4-ethylmorpholine-2-carboxamide], the IC50 is < 1 µM.
The same measure, in the same setting: for `CC(C)OC(=O)NCc1cc2c(c(-c3ccc(C#N)cc3)c1)CN(C#N)C2` [Example 224, isopropyl ((2-cyano-7-(4-cyanophenyl)isoindolin-5-yl)methyl)carbamate] the value was 1 to 10 µM; for `N#CN1Cc2cccc(-c3ccccc3C(=O)NCCn3cnccc3=O)c2C1` [Example 180, 2-(2-cyanoisoindolin-4-yl)-N-(2-(6-oxopyrimidin-1(6H)-yl)ethyl)benzamide], 1 to 10 µM; for `CNC(=O)c1ccc2cnc(Nc3cccc4c3CN(C#N)C4)cc2c1` [Example 22], 1 to 10 µM.
On the same count and under the same terms, for `Cc1nc2c(c(-c3cccc(N4CCCC4=O)c3)n1)CN(C#N)C2` [Example 289, 2-methyl-4-(3-(2-oxopyrrolidin-1-yl)phenyl)-5,7-dihydro-6H-pyrrolo[3,4-d]pyrimidine-6-carbonitrile] the value was 1 to 10 µM; for `CN1CCC[C@@H](C(=O)Nc2cc3c(c(-c4ccncc4)c2)CN(C#N)C3)C1` [Example 163, (R)-N-(2-cyano-7-(pyridin-4-yl)isoindolin-5-yl)-1-methylpiperidine-3-carboxamide], 1 to 10 µM.
As for `COc1cccc(-c2nnc(-c3cnn(C)c3)c3c2CN(C#N)C3)c1` [Example 182, 1-(3-methoxyphenyl)-4-(1-methyl-1H-pyrazol-4-yl)-5,7-dihydro-6H-pyrrolo[3,4-d]pyridazine-6-carbonitrile], the half-inhibitory concentration (IC50) fell in the range of 1 to 10 µM.
The same measure, in the same setting: for `N#CN1Cc2nc(NCCO)nc(N3CCC(Oc4ccccc4)CC3)c2C1` [Example 206, 2-((2-hydroxyethyl)amino)-4-(4-phenoxypiperidin-1-yl)-5,7-dihydro-6H-pyrrolo[3,4-d]pyrimidine-6-carbonitrile] the value was 1 to 10 µM; for `Cn1cc(CNc2nc3c(c(N4CCc5ccccc5C4)n2)CN(C#N)C3)cn1` [Example 201, 4-(3,4-dihydroisoquinolin-2(1H)-yl)-2-(((1-methyl-1H-pyrazol-4-yl)methyl)amino)-5,7-dihydro-6H-pyrrolo[3,4-d]pyrimidine-6-carbonitrile], 1 to 10 µM; for `N#CN1Cc2ncnc(N3Cc4ccccc4C3)c2C1` [Example 100, 4-(isoindolin-2-yl)-5,7-dihydro-6H-pyrrolo[3,4-c]pyrimidine-6-carbonitrile], 1 to 10 µM.
The same measure, in the same setting: for `CNC(=O)C1CCCN1c1nc(-c2ccccc2)nc2c1CN(C#N)C2` (stereo not drawn) [Example 133, 1-(6-cyano-2-phenyl-6,7-dihydro-5H-pyrrolo[3,4-d]pyrimidin-4-yl)-N-methylpyrrolidine-2-carboxamide] the value was 10 to 30 µM.

Still in this experiment, the particulars now being: IC50 range, 30 min pre-incubation of enzyme and compound, read after 2 hr incubation at room temperature.
The molecule `N#CN1Cc2ncnc(N3CCC(OCc4ccccc4)CC3)c2C1` [Example 185, 4-(4-(benzyloxy)piperidin-1-yl)-5,7-dihydro-6H-pyrrolo[3,4-d]pyriimidine-6-carbonitrile] showed an IC50 of 10 to 30 µM.
